The source of these data is US20240368122A1, “JAK2 INHIBITORS AND METHODS OF USE THEREOF” (RELAY THERAPEUTICS, INC., priority 2021, published 2024).

Each structure is given as a SMILES string.

The target in test [1] is T1, JAK2 JH2 WT (V536-D812) [W659A, W777A, F794H solubilizing mutations] (Homo sapiens, UniProt O60674, F794H/W659A/W777A).
T1 construct: **JAK2 JH2 WT (V536-D812) [W659A, W777A, F794H solubilizing mutations]; C-thrombin-avi-His6; thrombin cleavage site (C); His6 (C); purchased Biortus
The experiment in a line: Surface Plasmon Resonance (SPR) binding assay, JAK2 JH2 domain. Summed up:
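Kinetics came from 1:1 fits of single-cycle runs at 20 °C: four 3-fold dilutions from 5 uM for JH1 or 500 nM for JH2, 60 s association, and 300 s or 1200 s dissociation respectively. Protein was freshly captured per compound in the presence of 10 uM stabilizer compound, with running buffer of pH 7.5 HEPES/NaCl/glycerol/DTT plus 2% DMSO.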

For test [2], the system named is TF1 JAK2 V617F STAT5 reporter. The experiment in a line: Cellular TF1 STAT5 assay (luciferase reporter), JAK2 V617F. Type of test: cell-based. Conditions: Homo sapiens, TF-1, TF1 cells, JAK2 V617F, read-out: Cell PD TF1 V617F STAT5 (IC50). Summed up: (§1)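 Compounds were dispensed as 1000× DMSO stocks (10 mM top, 1:3 steps), then V617F JAK2 TF1 cells carrying a STAT3 or STAT5 luciferase reporter were added. After 18-20 h at 37 °C, ONE-glo reagent was added and luminescence measured.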

Test [3] relates to TF1 JAK2 V617F STAT3 reporter. The experiment in a line: Cellular TF1 STAT3 assay (luciferase reporter), JAK2 V617F. The settings on record: Homo sapiens, TF-1, TF1 cells, JAK2 V617F, read-out: Cell PD-TF1 JAK2 V617F STAT3 (IC50). Type of test: cell-based. Summed up: as §1

T1 sequence (O60674 536-812 W659A/W777A/F794H): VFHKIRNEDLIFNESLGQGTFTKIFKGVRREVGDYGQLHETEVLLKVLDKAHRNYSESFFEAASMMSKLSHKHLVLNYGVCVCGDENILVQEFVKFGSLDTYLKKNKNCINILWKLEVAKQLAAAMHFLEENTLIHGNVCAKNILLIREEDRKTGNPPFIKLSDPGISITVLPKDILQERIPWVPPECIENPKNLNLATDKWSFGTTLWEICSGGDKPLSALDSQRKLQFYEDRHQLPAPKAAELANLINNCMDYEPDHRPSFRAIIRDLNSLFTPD

In the case of `CNC(=O)c1nnc(NC(=O)C2CC2)cc1Nc1cccc(-c2cn(C3CN(C(C)C)C3)nc2C(C)O)c1OC` (stereo not drawn) [Compound 336], the dissociation constant Kd in test [1] fell in the range of 50 to 500 nM. Besides, the IC50 in test [2] and in test [3] was 5000 to 100000 nM throughout.

On to `CNC(=O)c1nnc(NC(=O)C2CC2)cc1Nc1cccc(-c2cn(C3CN(Cc4cccc(C#N)n4)C3)nc2C(C)O)c1OC` (stereo not drawn) [Compound 337], for which the dissociation constant (Kd) in test [1] was 0.01 to 10 nM. Besides, the IC50 in test [2] and in test [3] was 5000 to 100000 nM each time.

Regarding `CNC(=O)c1nnc(NC(=O)C2CC2)cc1Nc1cccc(-c2cn(C3CN(C(C)C)C3)nc2C(C)(C)O)c1OC` [Compound 338], the dissociation constant Kd in test [1] lay within 50 to 500 nM. Also, the concentration for half-maximal inhibition (IC50) in test [2] fell in the range of 5000 to 100000 nM; in test [3] it was 500 to 5000 nM.

In the case of `CNC(=O)c1nnc(NC(=O)C2CC2)cc1Nc1cccc(-c2cn(C3CN(Cc4cccc(C#N)n4)C3)nc2C(C)(C)O)c1OC` [Compound 339], the Kd in test [1] lay within 50 to 500 nM. The IC50 in test [2] and in test [3] was 5000 to 100000 nM in each case.

As for `CNC(=O)c1nnc(NC(=O)C2CC2)cc1Nc1ccc(C)c(-c2cnc(C(=O)N(C)Cc3cc(S(C)(=O)=O)ccn3)c(F)c2)c1OC` [Compound 340], the Kd in test [1] fell in the range of 0.01 to 10 nM. Also, the half-inhibitory concentration (IC50) in test [2] and in test [3] was 50 to 500 nM throughout.

On to `CNC(=O)c1nnc(NC(=O)C2CC2)cc1Nc1cccc(-c2cn(C3CN(Cc4cccc(C(F)F)n4)C3)cn2)c1OC` [Compound 341], for which, in test [1], the Kd was 0.01 to 10 nM. The half-maximal inhibitory concentration (IC50) in test [2] and in test [3] was 50 to 500 nM in each case.

In test [1], `CNC(=O)c1nnc(NC(=O)OC2CC2)cc1Nc1cccc(-c2cnn(C3CN(Cc4ccccn4)C3)c2)c1OC` [Compound 342] registered a Kd of 0.01 to 10 nM. Also, the IC50 in test [2] and in test [3] was 500 to 5000 nM throughout.

Compound `CNC(=O)c1nnc(NC(=O)C2CC2)cc1Nc1cccc(-c2cnn(C3CN(Cc4cccc(C5COC5)n4)C3)c2)c1OC` [Compound 343] returned a Kd in test [1] of 0.01 to 10 nM. Moreover, the IC50 in test [2] and in test [3] was 50 to 500 nM each time.

On to `CNC(=O)c1nnc(NC(=O)C2CC2)cc1Nc1cccc(-c2cnn(C3CN(Cc4cc(C(F)F)cc(C#N)n4)C3)c2)c1OC` [Compound 344], for which the equilibrium dissociation constant (Kd) in test [1] fell in the range of 0.01 to 10 nM. The IC50 in test [2] and in test [3] was 50 to 500 nM each time.

For `CNC(=O)c1nnc(NC(=O)C2CC2)cc1Nc1ccc(C)c(-c2ccc(C(=O)N(C)Cc3cc(S(C)(=O)=O)ccn3)nc2)c1OC` [Compound 347], the Kd in test [1] lay within 0.01 to 10 nM. The IC50 in test [2] and in test [3] was 50 to 500 nM throughout.

In test [1], `CNC(=O)c1nnc(NC(=O)C2CC2)cc1Nc1cccc(-c2cnn([C@H]3C[C@H](Cc4cccc(C#N)n4)C3)c2)c1OC` [Compound 349] showed a dissociation constant (Kd) of 0.01 to 10 nM. Moreover, the IC50 in test [2] and in test [3] was 500 to 5000 nM throughout.

In test [1], `CNC(=O)c1nnc(NC(=O)C2CC2)cc1Nc1cccc(-c2cnn(C3CN(Cc4cccc(C(C)(C)COC)n4)C3)c2)c1OC` [Compound 351] displayed an equilibrium dissociation constant (Kd) of 0.01 to 10 nM. For the same compound, the IC50 in test [2] and in test [3] was 500 to 5000 nM in each case.

In the case of `CCN(C)C(=O)c1cccc(CN2CC(n3cc(-c4cccc(Nc5cc(NC(=O)C6CC6)nnc5C(=O)NC)c4OC)cn3)C2)n1` [Compound 354], in test [1], the Kd was in the range of 0.01 to 10 nM. The values for the concentration for half-maximal inhibition (IC50) in test [2] and in test [3] were 10 to 50 nM and 50 to 500 nM, respectively.

As for `CNC(=O)c1nnc(NC(=O)C2CC2)cc1Nc1cccc(-c2cnn(C3CN(Cc4cccc(C(=O)N5CCC5)n4)C3)c2)c1OC` [Compound 355], the Kd in test [1] was in the range of 0.01 to 10 nM. For the same compound, the half-maximal inhibitory concentration (IC50) in test [2] was 10 to 50 nM; in test [3] it was 50 to 500 nM.

For `CNC(=O)c1nnc(NC(=O)C2CC2)cc1Nc1cccc(-c2cnn(C3CN(Cc4cccc(C(=O)N5CCCC5)n4)C3)c2)c1OC` [Compound 356], in test [1], the dissociation constant (Kd) lay in the range of 0.01 to 10 nM. The concentration for half-maximal inhibition (IC50) in test [2] and in test [3] was 10 to 50 nM each time.

In turn, `CNC(=O)c1nnc(NC(=O)C2CC2)cc1Nc1cccc(-c2cnn(C3CN(Cc4cccc(C(=O)N5CCC(F)(F)C5)n4)C3)c2)c1OC` [Compound 357] returned a dissociation constant (Kd) in test [1] of 0.01 to 10 nM. The IC50 fell in the range of 10 to 50 nM in test [2] and 50 to 500 nM in test [3].

For the compound `CNC(=O)c1nnc(NC(=O)C2CC2)cc1Nc1cccc(-c2cnn(C3CN(Cc4cccc(C(=O)N5CCC(C(F)(F)F)C5)n4)C3)c2)c1OC` (stereo not drawn) [Compound 358], the dissociation constant Kd in test [1] was 0.01 to 10 nM. For the same compound, the concentration for half-maximal inhibition (IC50) in test [2] and in test [3] was 50 to 500 nM each time.

In turn, `CNC(=O)c1nnc(NC(=O)C2CC2)cc1Nc1cccc(-c2ccc(C3CN(Cc4ccccn4)C3)c(OC)c2)c1OC` [Compound 359] showed a dissociation constant (Kd) in test [1] of 50 to 500 nM. Besides, the IC50 is 500 to 5000 nM in test [2] and 5000 to 100000 nM in test [3].

`CNC(=O)c1nnc(NC(=O)C2CC2)cc1Nc1cccc(-c2ccc(C3CN(Cc4cc(C#N)ccn4)C3)c(OC)c2)c1OC` [Compound 360] registered a Kd in test [1] of 50 to 500 nM. The results for the 50% inhibitory concentration (IC50) in test [2] and in test [3] were 500 to 5000 nM and 5000 to 100000 nM, respectively.

Consider `CNC(=O)c1nnc(NC(=O)C2CC2)cc1Nc1cccc(-c2ccc(C3CN(Cc4cccc(C#N)n4)C3)c(OC)c2)c1OC` [Compound 361], for which, in test [1], the dissociation constant Kd was in the range of 50 to 500 nM. The half-inhibitory concentration (IC50) fell in the range of 500 to 5000 nM in test [2] and 5000 to 100000 nM in test [3].

`CNC(=O)c1nnc(NC(=O)C2CC2)cc1Nc1cccc(-c2ccc(C(=O)N(C)Cc3ncc(COC4CC4)s3)nc2)c1OC` [Compound 362]: in test [1], the Kd lay in the range of 0.01 to 10 nM. The IC50 in test [2] and in test [3] was 500 to 5000 nM in each case.

As to `COc1c(Nc2cc(NC(=O)C3CC3)nnc2-c2ncc[nH]2)cccc1-c1ccc(C(=O)N(C)Cc2cn(C)nc2C)nc1` [Compound 363], the equilibrium dissociation constant (Kd) in test [1] fell in the range of 0.01 to 10 nM. The IC50 in test [2] is 50 to 500 nM; in test [3], 500 to 5000 nM.

In test [1], `CNC(=O)c1nnc(NC(=O)OC2CC2)cc1Nc1cccc(-c2cnn(C3CN(Cc4cccc(C#N)n4)C3)c2)c1OC` [Compound 364] returned a Kd of 0.01 to 10 nM. The 50% inhibitory concentration (IC50) in test [2] and in test [3] was 50 to 500 nM in each case.

As to `CNC(=O)c1nnc(NC(=O)C2CC2)cc1Nc1cccc(-c2cnn(C3CN(Cc4ncccc4O)C3)c2)c1OC` [Compound 365], the Kd in test [1] was 0.01 to 10 nM. Also, the IC50 in test [2] and in test [3] was 500 to 5000 nM each time.

For `COc1c(Nc2cc(NC(=O)C3CC3)nnc2-c2ncc[nH]2)cccc1-c1ccc(C(=O)N(C)Cc2cc(C#N)ccn2)nc1` [Compound 366], the dissociation constant (Kd) in test [1] was in the range of 0.01 to 10 nM. For the same compound, the concentration for half-maximal inhibition (IC50) in test [2] and in test [3] was 50 to 500 nM throughout.

Compound `C=C(C)c1cccc(CN2CC(n3cc(-c4cccc(Nc5cc(NC(=O)C6CC6)nnc5C(=O)NC)c4OC)cn3)C2)n1` [Compound 367] gave a Kd in test [1] of 0.01 to 10 nM. The concentration for half-maximal inhibition (IC50) in test [2] and in test [3] was 50 to 500 nM in each case.

In test [1], `C=Cc1cccc(CN2CC(n3cc(-c4cccc(Nc5cc(NC(=O)C6CC6)nnc5C(=O)NC)c4OC)cn3)C2)n1` [Compound 368] returned a Kd of 0.01 to 10 nM. Also, the IC50 in test [2] and in test [3] was 50 to 500 nM in each case.

`CNC(=O)c1nnc(NC(=O)C2CC2)cc1Nc1cccc(-c2cnn(C3CN(Cc4cccc(C5(C)COC5)n4)C3)c2)c1OC` [Compound 369] gave an equilibrium dissociation constant (Kd) in test [1] of 0.01 to 10 nM. Also, the half-inhibitory concentration (IC50) in test [2] and in test [3] was 50 to 500 nM throughout.

`CNC(=O)c1nnc(NC(=O)C2CC2)cc1Nc1cccc(-c2cnn(C3CC(C(O)c4ccccn4)C3)c2)c1OC` (stereo not drawn) [Compound 370]: the dissociation constant Kd in test [1] fell in the range of 0.01 to 10 nM. For the same compound, the IC50 in test [2] and in test [3] was 500 to 5000 nM throughout.
